PMC4490117 (Pharmaceutical research, 2015)

What was measured:
[1] = T1 relaxation time by MRI phantom, 4.7 Tesla; format: physicochemical; settings: same gadolinium concentration, Avg ± SD, n=3
[2] = system: subcutaneous flank SKOV-3 tumors; assay: T1-weighted MRI of tumor accumulation in tumor-bearing mice; format: in vivo, nu/nu mice; settings: IV, gadolinium 0.072 mmoles/kg, SKOV-3 tumor-bearing mice, n=3

CNC[C@H](O)[C@@H](O)[C@H](O)[C@H](O)CO.CNC[C@H](O)[C@@H](O)[C@H](O)[C@H](O)CO.O=C([O-])CN(CCN(CC(=O)[O-])CC(=O)O)CCN(CC(=O)[O-])CC(=O)O.[Gd+3] [Magnevist]
T1 Relaxivity [1]: 22 ms | time to clear from the tumor (T1-weighted images) ([2]; Figure 4A): ≤ 6 h | time to clear from tumor tissues (relative T1 signal, % tumor signal vs time) ([2]; Figure 4B): ≤ 5 h
